Results: publication PMC9838834, “Improvement of Antialveolar echinococcosis efficacy of novel Albendazole-Bile acids Derivatives with Enhanced Oral Bioavailability” (PLOS Neglected Tropical Diseases, 2023)

What was measured:
[1] = Systemic pharmacokinetics in SD rats (UHPLC-MS); format: in vivo, Sprague-Dawley (SD) rats; conditions: SD rats, oral 25 mg/kg
Procedure: A Dionex Ultimate 3000 RSLC system (Thermofisher) combined with an Accucore aQ C18 column (150 mm×2.1 mm, 2.6 μm, Thermo fisher) was used in the sample separation process. The separation speed was set at […] for all gradients. 1 μL of injection volume and a constant temperature of (25 ± 1°C were set for the column. The eluents were A, water with 0.1% formic acid (v/v) and B, methanol; the gradient program was as follows: 0–6 min, 8–40% B; 6–8 min, 40–100% B; 8–10 min, 100% B; 10–11 min, 100–8% B; 11–13 min, 8% B.
Heated electro-spray ionization (HE-SI) was paired with a Q-Orbitrap MS in the MS analysis. The flow rate of auxiliary, sheath and sweep gas was set at 35, 10, and 1 (arbitrary unit), respectively. A full MS-ddMS^2 mode was used to perform the analysis. The damping gas in the C-trap and nitrogen was used to stabilize the spraying. Temperatures of 350°C and 320°C were set and kept for the auxiliary gas heater and capillary. Under negative mode, 3.0 kV was adopted for the spray voltage, 60 V was used for the S-lens RF level, 50 ms was used for the maximum injection time, and 3.0 ^e6 was set as the automatic gain control target. Full MS-ddMS^2 scan ranged from 150.0000 to 800.0000 m/z. Precise molecular weight […] was used for qualitative analysis, the corresponding peak area was used for quantitative analysis, and MS^2 fragments were used for further qualitative analysis.
A cross-over design was employed with male SD rats (n = 7) to evaluate in vivo pharmacokinetics. The rats were subjected to fasting for one night before each administration and were fed 4 hours after administration. ABZ was administered by gavage (25 mg/kg). Blood was collected under isoflurane anesthesia at a flow rate of 2.0 mL/min. At 0.25, 0.5, 1, 2, 2.5, 3, 4, 6, 8, 12, and 24 hours after administration, 200–500 μL blood was collected from the orbital venous plexus and centrifuged at 13000 rpm for 5 min. The upper plasma was stored at—80°C for testing.
Plasma samples were thawed at room temperature, and 100 μL was added to an equal volume of mass spectrometry grade methanol, vortexed for 1 min, and centrifuged again at 13000 rpm for 5 min. 100 μL of the supernatant were added to 100 μL of 200 ng/mL mebendazole IS solution, vortexed for 1 min, and centrifuged again at 13000 rpm for 5 min. The resulting sample was injected by UHPLC-HR-ESI-MS with an injection volume of 1 μL. The pharmacokinetic study of SD rats was performed according to the standards recommended by the "Guidelines for the Care and Use of Laboratory Animals" (Animal Laboratory Resources Institute, 1995) and was approved by the Institutional Animal Care and Use Committee of Qinghai University.

protoscolex (PSCs) [2] = assay: Protoscolex microstructure by optical microscope and SEM; format: cell-based, E. multilocularis; conditions: 5 days after treatment, 10 μg/mL
Text: (§1) Protoscoleces (PSCs) from E. multilocularis were collected aseptically from alveolar echinococcosis obtained from the abdominal cavity of gerbils in Qinghai Research Key Laboratory for Echinococcosis, China. The specific operation steps were as follows: (1) dissect the successfully preserved Echinococcus protoscoleces gerbil model, isolate cysts and wash the residual liver tissue and blood with sterile Penicillin-Streptomycin solution (penicillin (1500 U/ mL) + streptomycin (1000 U/ mL)). (2) Place the clean cysts in sterile glassware, cut them into a slurry, filter the original head section with sterile gauze, and rinse them with Penicillin-Streptomycin solution 3 times. (3) Slightly rotate and shake the filtrate, absorb the suspended connective tissue, impurities, inactivated PSCs, and excess Penicillin-Streptomycin solution in the upper layer, repeat several times and finally concentrate the pure PSCs into the test tube. Viability was assessed by muscular movement (evaluated under an optical microscope), the motility of flame cells, and the exclusion test with methylene blue. The PSCs were incubated in an RPMI 1640 medium containing 0.20 mg/mL liver homogenous serous, 100 U/mL penicillin, 100 μg/mL streptomycin and 10% calf serum at 37°C in a 5% CO2 atmosphere at a concentration of (1000–2000) PSCs/mL.
(§2) The PSCs were divided into blank control groups (Groups 1 and 2), positive control groups (Groups 3 and 4), and experimental groups (Groups 5 to 7). Group 1 was RPMI-1640 medium with 0.20 mg/mL liver homogenate; Group 2 was 0.2% DMSO medium with 0.2% DMSO; Group 3 was RPMI-1640 medium with 0.20 mg/mL liver homogenate and 0.2% DMSO, containing 10 μg/mL Albendazole; Group 4 was RPMI-1640 medium with 0.20 mg/mL liver homogenate and 0.2% DMSO, containing 10 μg/mL albendazole sulfoxide; Groups 5–7 were RPMI-1640 medium with 0.20 mg/mL liver homogenate and 0.2% DMSO, containing 13.45, 26.9 and 53.8 μg/mL ABZ-BA, with effective ABZ concentrations of 5, 10 and 20 μg/mL, respectively. The culture medium and drug were changed every 3 days for one week. PSCs samples (10 μL) were collected every day and stained with 0.4% trypan blue staining solution, observed under an inverted microscope, and photographed to record PSC mortality.
For ultrastructural studies, 200 μL PSCs were taken from each group 5 days after treatment and fixed with 4% glutaraldehyde in sodium cacodylate buffer at 4°C for 72 hours. Samples were dehydrated by continuous incubation in increasing concentrations of ethanol (50–100%), and ethanol was removed by supercritical extraction. They were then sputter-coated with gold (100 Å thick) and examined on an FEI Quanta 200 scanning electron microscope operating at 20 kV.

protoscolex (PSCs) [3] = assay: Detection of protoscolex mortality / survival rate in vitro (trypan blue); format: cell-based, E. multilocularis; conditions: 7 days; ABZ 10 μg/mL, ABZ-SO 10 μg/mL, ABZ-BA 13.45, 26.9, 53.8 μg/mL; liver homogenate + 0.2% DMSO; n = 3
Text: as §1, §2

Compound	detection in plasma 24 hours after administration [1]	shape of the drug time curve [1]	Frel (relative bioavailability) = AUCAbz(0–24)/AUCABZ (0–24) ([1]; n = 7) [%]	PSC morphology under the SEM (protoscolex (PSCs) [2])	PSC morphology under the optical microscope (OM) (protoscolex (PSCs) [2])	mortality of PSCs (protoscolex (PSCs) [2]; vs blank groups)	inhibitory effect on PSC survival rate (protoscolex (PSCs) [3])
CCCSc1ccc2[nH]c(NC(=O)OC)nc2c1 [Abz]	still detected	double-peak	2613				
CCC[S+]([O-])c1ccc2[nH]c(NC(=O)OC)nc2c1 (stereo not shown) [ABZ-SO, albendazole sulfoxide]				elongated and curled up	became vacuolar and transparent	significantly higher than in the blank groups	time and concentration-dependent inhibitory effects
